Assay results reported in patent US10561635B2, “Cromolyn compositions for treatment of pulmonary fibrosis” (Respivant Sciences, GmbH, priority 2016, dated 2020).
Where two headings read alike, the source gives them in different places.

Tests used:
[1] = in vivo, cited from earlier work
[2] = PK-01: pharmacokinetics and relative bioavailability of single doses in healthy subjects; type: in vivo, human; conditions: for AUC(0-inf): human, plasma, inhaled, 40 mg, 40 mg single dose
[3] = Pharmacokinetics of cromolyn sodium in plasma and lung of male BALB/c mice after a single intraperitoneal injection; type: in vivo; conditions: single IP injection, 10 mg/kg and 100 mg/kg
Method: BALB/c male mice, weighing 22±2 g, were provided by BioLasco Taiwan. All animals were maintained in a well-controlled temperature (20-24° C.) and humidity (30%-70%) environment with 12 hours light/dark cycles. The mice were given free access to a standard lab diet [MFG (Oriental Yeast Co., Ltd., Japan)] and autoclaved tap water.
The solution was administered to the mice by IP injection at concentrations of 10 mg/kg and 100 mg/kg. The dosing volume for both dose strengths was 5 mL/kg.
The mice were sedated under general inhalant anesthesia (3% isoflurane) for blood collection by cardiac puncture. […]
The plasma samples were processed using acetonitrile (ACN) precipitation and analyzed by LC-MS/MS. […] The processed plasma samples were stored at −70° C. until receiving LC-MS/MS analysis, at which time peak areas were recorded, and the concentrations of the test substance in the unknown plasma samples were determined using the respective calibration curve. The reportable linear range of the assay was determined, along with the lower limit of quantitation (LLQ).
Each lung was homogenized in 1.5 mL cold phosphate-buffered saline (PBS) at pH 7.4 for 10 seconds on ice. The lung homogenate was centrifuged at 5,400×g for 15 minutes at 4° C., and the supernatant was subsequently processed using ACN precipitation and analyzed by LC-MS/MS. […]

AUC(0-inf) ([2]; eFlow 30 L): 338 ng·h/mL
AUC(0-inf) ([2]; eFlow 40 L): 212 ng·h/mL
lung deposition with the 30 L device compared with the 40 L device, indicated by AUC ([2]; same dose (40 mg)): surprisingly higher
exposure of cromolyn sodium in the plasma and lungs [3]: Significant exposure
Structure (SMILES): O=C([O-])c1cc(=O)c2c(OCC(O)COc3cccc4oc(C(=O)O)cc(=O)c34)cccc2o1.[Na+] [cromolyn sodium, disodium 5,5′-(2-hydroxypropane-1,3-diyl)bis(oxy)bis(4-oxo-4H-chromene-2-carboxylate)]
oral bioavailability ([1]; listed as cromolyn): about 1%
oral bioavailability [1]: ~1%
